Results reported in US20230144898A1, “INHIBITOR OF ASPARTIC ACID SYNTHESIS IN TUMOR CELLS, INHIBITOR OF SPHEROID FORMATION OF TUMOR CELLS, INHIBITOR OF TUMOR CELL METASTASIS, ACTIVITY ENHANCER OF GLYCOLYTIC INHIBITOR, AND PHARMACEUTICAL COMPOSITION FOR SUPPRESSING AND/OR PREVENTING TUMOR METASTASIS” (CCI HOLDINGS INC., priority 2020, published 2023).
Entries after “also recorded” stand apart in the source; their conditions may differ.

Tests used:
[1] = Microscopic observation of organ tissue sections of model mice (Test Example 2); type: in vivo; details: heart, normal site of lung, cerebrum, kidney, liver, spleen, 50 mg/kg i.p.
Description: Furthermore, when the model mouse to which neopetasin or corn oil was administered was dissected in the above, sections were prepared from the tissues of each organ (heart, normal site of lung, cerebrum, kidney, liver, spleen) and were observed using a microscope. […] The results are consistent with specificity of the action of neopetasin on tumor cells in vitro as described above in Test

[2] = system: B16F10 cells; experiment: Scratch wound healing assay (Test Example 5); type: cell-based, mouse; details: 0.3 µM, 72 hours
Description: Specifically, to start with, B16F10 cells were seeded in a six-well plate in an amount of 1.0×10^5 cells/mL. After 24 hours starting from seeding, scratches were then made using 200 µL chips. Thereafter, the medium was changed to a neopetasin-containing one (concentration: 0.3 µM), the cells were further cultured for 72 hours, and the cells were photographed. In addition, as a negative control section, the same experiment was performed by replacing the medium with the same medium not containing neopetasin.

[3] = system: B16F10 cells; experiment: Spheroid formation assay (Test Example 4); type: cell-based, mouse; details: 0.3 µM or 3 µM; 24, 48 and 72 hours
Description: Specifically, B16F10 cells were seeded in an amount of 0.3×10^5 cells/mL in a 96-well plate for spheroid formation in an amount of 100 µL each. Thereupon, neopetasin at a concentration of 0.3 µM or 3 µM was added to the medium. Cells were photographed using a phase-contrast microscope after 24 hours, 48 hours and 72 hours of adding neopetasin. Moreover, as a negative control section, DMSO was administered to perform the same experiment.

[4] = system: B16F10 cells; experiment: Influence on anticancer action of 2-DG, cell viability (Test Example 3); type: cell-based, mouse; details: neopetasin 0.3 µM or 3 µM with 2-DG, 36 hours
Description: Specifically, to start with, B16F10 cells were seeded in a six-well plate in an amount of 0.5×10^5 cells/mL. Next, after 24 hours starting from seeding, 2-DG (concentration changed from 3 mM to 3 nM) was added and simultaneously treated with neopetasin at a concentration of 0.3 µM or 3 µM. Then, after 36 hours starting from this treatment, the cell viability was measured through the same method as in Test Example 1. Moreover, as a negative control section, DMSO was administered to perform the same experiment.

[5] = system: B16F10 cells; experiment: Western blotting, temporal changes of AMPK, FAK, Akt, ERK1/2 (Test Example 11); type: cell-based, mouse; details: 3 µM; 3, 8, 24 and 56 hours
Description: Specifically, for B16F10 cells treated with neopetasin (3 µM) or metformin (5000 µM) through the same method as in Test Example 1, the cells were recovered at each of 3 hours, 8 hours, 24 hours, and 56 hours after the treatment with these compounds, and the contents of various proteins were measured by Western blotting through the same method as in Test Example 10. Furthermore, DMSO was administered to the negative control section, and the same experiment was performed.

[6] = system: mitochondria in B16F10 cells; experiment: Electron microscope observation of treated cells (Test Example 8); type: cell-based, mouse; details: neopetasin 3 µM, metformin 5000 µM
Description: Following the above results, the cells respectively treated with neopetasin (3 µM) and metformin (5000 µM) in the above were observed using an electron microscope. Furthermore, DMSO was administered to the negative control section, and the same experiment was performed.

[7] = system: B16F10 cells; experiment: Mouse malignant melanoma lung metastasis model (Test Example 2); type: in vivo; details: 50 mg/kg intraperitoneally once every two days, 5 times; after 10 days
Description: Using the mouse malignant melanoma lung metastasis model, the metastasis inhibitory effect of neopetasin on tumor cells was examined. Specifically, C57BL/6 mice (6 weeks old, female) were purchased from Japan SLC (Hamamatsu). Then, the B16F10 cells were intravenously administered from tail vein in an amount of 0.25×10^6 cells/100 µL PBS. Then, from the day when the cells were seeded, neopetasin (50 mg/kg) was intraperitoneally administered once every two days (5 times in total). After 10 days from the start of administration, the lungs were dissected and extracted, and the number of metastasis lesions observed on the lung surface was counted. In addition, the P value was calculated using Student’s T-test using the GraphPad Prism software system (GraphPad software Inc) .

[8] = system: B16F10 cells; experiment: Metabolomic analysis (amino acids) by CE-TOFMS (Test Example 7); type: cell-based, mouse
Description: The metabolomic analysis (amino acids) of neopetasin-treated B16F10 cells was performed. Specifically, for B16F10 cells treated with neopetasin (3 µM) through the same method as in Test Example 1, the cells were recovered at each time point of 9 hours and 48 hours after the treatment, and amino acid concentration was measured using a capillary electrophoresis-time of flight mass spectrometer (CE-TOFMS). Furthermore, the amino acid concentration in the sample was measured according to an internal standard calibration method, and the internal standard concentration in the sample was calculated as 25 µM. Moreover, for the analysis, Master Hands ver. 2.17.3.18 (Institute for Advanced Biosciences, Keio University) was used.

[9] = system: B16F10 cells; experiment: Lung metastasis of cells pre-treated in vitro, tail vein injection (Test Example 13); type: in vivo, mouse; details: cells reacted with 3 µM in vitro; two-week non-treatment period
Description: In this test example, neopetasin (NP) was previously reacted with B16F10 cells that are derived from the mouse melanoma at a concentration of 3 µM in vitro. Thereafter, the uniform numbers of living cells were injected into the tail vein of the mice, and thereafter, no treatment was performed, and the number of metastasis lesions formed in the lung after a two-week non-treatment period was counted. The protocol of the present test example is shown in FIG. 19, and the graph showing the results of the present test example and the observation photograph of the extracted lung are shown in FIG. 20. […] Here, if neopetasin (NP) were reducing the number of lung metastasis lesions as part of the proliferation inhibitory effect on tumor cells (in other words, lung metastasis is suppressed as part of the proliferation inhibitory effect), equivalent formation of metastasis lesions should be observed in both neopetasin (NP)-administered group and the control (DMSO-administered group) during the non-treatment period in which the proliferation inhibitory effect is not exerted. However, in reality, as described above, formation of a new metastatic lesion has not been confirmed even after the non-treatment period in neopetasin (NP)-administered group.

[10] = system: A2058 cells; experiment: Western blotting of cancer-related proteins, A2058 cells (Test Example 10); type: cell-based, human; details: 3 µM, 56 hours

C=C(C)[C@H]1C[C@@]2(C)C(=CC1=O)CC[C@@H](OC(=O)/C(C)=C\C)[C@@H]2C [Neopetasin, neopetasin]
histological and morphological changes / toxicity in organs [1]: no histological and morphological changes; also recorded: showed little toxicity to the liver, kidney, spleen
migration of tumor cells to the scratch portion [2]: suppressed
spheroid formation [3]: could not form spheroids
anticancer action of 2-DG on addition of neopetasin [4]: enhanced in a concentration-dependent manner
AMPK change [5]: changes at the earliest stage (3 hours)
Akt and ERK [5]: inactivated
FAK [5]: inactivated
influence on mitochondria (electron microscope) [6]: most mitochondria were vacuolated
lung metastasis (number of metastasis lesions on the lung surface) [7]: extremely potently suppressed lung metastasis; also recorded: inhibited lung metastasis
concentration of aspartic acid (Asp) in the sample ([8]; 3 µM, after 9 hours): strongly reduced
aspartic acid synthesis, remaining fraction ([8]; summary statement): ⅒
formation of metastasis lesions in lung [9]: formation of metastasis lesions was not observed
expression of cancer-related molecules [10]: inhibit a wide range of cancer-related molecules
